# Laboratory results taken from patent US20150093351A1, “MALODOR CONTROL COMPOSITIONS HAVING ACTIVATED ALKENES AND METHODS THEREOF” (The Procter & Gamble Company, priority 2012, published 2015).
# Counter-ions that a name gives are not always drawn.
# Columns and labels:
# [1] = Headspace SPME GC/MS malodor removal by aqueous Composition 3 (butylamine); details: 0.5 wt. % activated alkene in Composition 3, pH 7, no catalyst; 2 hours room temperature, 30 minutes 35° C.; numbers less than 1 = reduced malodor
# Procedure: (§1) All activated alkenes are present in Composition 3 in an amount of 0.5 wt. %, except PEG 400 Dimethylacrylate which is present in Composition 3 in amount of 1.0 wt. %.
# (§2) In addition, a Control composition is prepared according to the composition in Table 3, except the activated alkene is omitted. Composition 3 with each activated alkene and the Control composition are then tested for malodor removal performance as described below.
# (§3) n-Butanethiol and di-n-propoyl sulfide were chosen as chemical surrogates for sulfur-containing odors such as onion, garlic, sewage, etc. n-Butylamine was used as a representative for amine-containing odors such as fish, pet urine, etc.
# (§4) 5 ml of Composition 3 and the Control composition are placed into a separate GC-MS vial and each spiked with 5 microliters of butanthiol or butylamine. The compositions are first equilibrated at room temperature for 2 hours, then incubated at 35° C. for 30 minutes. The headspace of each vial is finally sampled using a polydimethyl siloxane (“PDMS”)/SPME fiber and analyzed by GC/MS. The head space concentrations of odor molecules are measured and the data are normalized to the Control composition.
# (§5) Numbers less than 1 denote reduced levels of malodor molecules present in the headspace of Composition 3 relative to the Control composition. The reduced malodor level is attributed to high malodor control efficacy of Composition 3.
# [2] = Headspace SPME GC/MS malodor removal by aqueous Composition 3 (butanethiol); details: 0.5 wt. % activated alkene in Composition 3, pH 7, no catalyst; 2 hours room temperature, 30 minutes 35° C.; numbers less than 1 = reduced malodor
# Procedure: as §1, §2, §3, §4, §5
# [3] = Headspace SPME GC/MS butanethiol removal by aqueous Composition 5 (activated alkene and catalyst); details: for Butanethiol head space concentration normalized to Control, catalyst DBU / Butanethiol head space concentration normalized to Control, catalyst n-hexyl amine / Butanethiol head space concentration normalized to Control, catalyst n-octylamine: Composition 5, 0.5 wt. % activated alkene + catalyst, pH 7; for Butanethiol head space concentration normalized to Control, catalyst DBU: DBU 1:150 molar ratio of catalyst:alkene; for Butanethiol head space concentration normalized to Control, catalyst n-hexyl amine: n-hexyl amine 1:15 molar ratio of catalyst:alkene; for Butanethiol head space concentration normalized to Control, catalyst n-octylamine: n-octylamine 1:15 molar ratio of catalyst:alkene; for Butanethiol head space concentration normalized to Control, No catalyst: Composition 5, 0.5 wt. % activated alkene, pH 7, no catalyst
# Procedure: [Worded in the source for another target; this target is reported under the same test.] as §4
# [4] = Vapor-phase butanethiol removal, static headspace GC/MS; details: 1 μL sample in 10 mL vial, 30 minutes room temperature
# Procedure: This example illustrates the malodor removal efficacy of exemplary activated alkenes-catalyst systems in the vapor phase. […] A 1 μL sample of each activated alkene-catalyst combination listed in Table 7 is pipeted into an individual 10 mL silanized headspace vial. The vials are sealed and allowed to equilibrate for at least 12 hours. This procedure is repeated 2 times for each sample. After the equilibration period, 1.5 mL of the target malodor standard vapor is injected into each 10 mL vial. For thiol analysis, the vials containing a sample+malodor standard are held at room temperature for 30 minutes. Then, a 1 mL headspace syringe is then used to inject 250 μL of each sample/malodor into a GC/MS split/splitless inlet. A GC pillow is used for the amine analysis to shorten the run times. Samples are then analyzed using a GC/MS with a DB-5, 20 m, 1 μm film thickness column with an MPS-2 autosampler equipment with static headspace function. Data is analyzed by ion extraction on each total ion current (56 for thiol) and the area is used to calculate the percent reduction from the malodor standard for each sample. Here, the results are reported as % reduction, and higher numbers represent higher reduction in butanethiol concentration.
# [5] = benchmark values; cited from earlier work
Compound,"Butylamine head space concentration normalized to Control composition, Replicate 1 [1]","Butylamine head space concentration normalized to Control composition, Replicate 2 [1]","Butanethiol head space concentration normalized to Control composition, Replicate 1 [2]","Butanethiol head space concentration normalized to Control composition, Replicate 2 [2]","Butanethiol head space concentration normalized to Control, catalyst DBU [3]","Butanethiol head space concentration normalized to Control, catalyst n-hexyl amine [3]","Butanethiol head space concentration normalized to Control, catalyst n-octylamine [3]","Butanethiol head space concentration normalized to Control, No catalyst [3]","% reduction in butanethiol concentration, 1% w/w DBU [4] [%]","% reduction in butanethiol concentration, 1% w/w n-hexylamine [4] [%]","% reduction in butanethiol concentration, 1% w/w n-octylamine [4] [%]","% reduction in butanethiol concentration, No catalyst [4] [%]",ambient temperature water solubility (benchmark) [5] [g/100 ml]
CC(C)=CCCC(C)=CC=O [Citral],0.0,0.0,0.1,0.1,–,–,–,–,–,–,–,–,–
C/C=C/C(=O)C1=C(C)C=CCC1(C)C [Damascenone],1.0,1.1,0.6,0.7,0.8,0.4,0.6,0.6,–,–,–,–,–
C/C=C/C(=O)C1C(C)C=CCC1(C)C (stereo not drawn) [Delta Damascone],–,–,–,–,–,–,–,–,99.6,30.7,24.4,21,–
CCOC(=O)/C=C/C(=O)OCC [Diethyl Fumarate],0.1,0.1,0.4,0.3,0.2,0,0,0.3,63,3.8,11.2,20.7,–
CCOC(=O)/C=C\C(=O)OCC [Diethyl Maleate],0.5,0.0,0.7,0.6,0.5,0.1,0.04,0.7,44.3,13.3,8.1,24.5,–
CCc1occc(=O)c1O [Ethyl Maltol],0.0,0.0,0.8,0.9,–,–,–,–,–,–,–,–,–
C=CC(=O)OCCCCCC [Hexyl Acrylate],0.6,0.5,0.1,0.1,0.2,0.02,0,0.1,23.1,11.2,21,31.9,–
"C=CC(=O)N(C)C [N,N Dimethyl Acrylamide]",1.0,1.0,0.8,0.8,0.3,0.6,0.7,0.8,–,–,–,–,–
O=C1C=CC(=O)N1C1CCCCC1 [N-Cyclohexylmaleimide],0.0,0.0,0.0,0.0,–,–,–,–,–,–,–,–,–
OC[C@H]1O[C@@H]2O[C@H]3[C@H](O)[C@@H](O)[C@@H](O[C@H]4[C@H](O)[C@@H](O)[C@@H](O[C@H]5[C@H](O)[C@@H](O)[C@@H](O[C@H]6[C@H](O)[C@@H](O)[C@@H](O[C@H]7[C@H](O)[C@@H](O)[C@@H](O[C@H]8[C@H](O)[C@@H](O)[C@@H](O[C@H]1[C@H](O)[C@H]2O)O[C@@H]8CO)O[C@@H]7CO)O[C@@H]6CO)O[C@@H]5CO)O[C@@H]4CO)O[C@@H]3CO [beta-cyclodextrin],–,–,–,–,–,–,–,–,–,–,–,–,1.8
O=C1C=CC(=O)N1c1ccccc1 [n-phenylmaleimide],–,–,–,–,–,–,–,–,10,1.5,2.2,12.4,–
"N,N dimethylacrylamide-4- methoxy phenol",–,–,–,–,–,–,–,–,95.2,50,22.3,28.2,–
hydroxypropyl modified beta cyclodextrin,–,–,–,–,–,–,–,–,–,–,–,–,≥ 60
